Results from patent publication US20070146686A1, “Non-invasive method to monitor microcirculation” (priority 2004, published 2007).

System: skin
Conditions: topical application on the skin; images at 0.5, 2, 5, 10 minutes following application; listed as methyl nicotineate amide
Description: Another way of administering the agent is by topical application on the skin. […] This agent is frequently used in skin testing for assessing the sensitivity of the skin.
In this example a modern digital camera technology is utilized, exemplified by Canon IXUS V3, Canon Svenska AB, Solna, Sweden. […] In this approach a flash of white light—or alternatively continuous light—(A, FIG. 4) illuminates the skin (B, FIG. 4) under study after having been linearly polarized by a polarizer (C, FIG. 4) positioned in front of the flash lamp—or a lamp delivering continuous light—(D, FIG. 4). In the skin surface (E, FIG. 4), a fraction of the polarized light is directly reflected towards the camera aperture with essentially no change in polarization. […]
At least two of the normalized data matrixes representing the different colors are then further processed to form an output data matrix (L, FIG. 4), where each value corresponds to the amount of vasodilatation in the actual source point in tissue. In this example, the algorithm generates an output data matrix of which each element is calculated by subtracting the green value from the red value and divides the difference by the sum of the red and the green value of each element of the normalized original data matrixes.

In the case of methyl nicotinate amide, the “local vasodilatation in skin” value is reported as “Vasodilatation”.
